# According to US4882349A, “Pyrrolacetic amides having antiinflammatory activity” (priority 1982, dated 1989):
# Read-outs that look alike come from different tables or passages of the source.
# Legend:
# [1] = system: brewers' yeast-induced hyperthermia; assay: antipyretic activity, brewers' yeast-induced hyperthermia; format: in vivo, albino male Wistar rats
# Method: The animals were caged under the same conditions as those described in the preceding tests. Five hours following […], determined by a rectal probe connected to a YSI thermometer (73 ATP model, Yellow Springs Instrument Company) were selected for the experiment. The animals were then randomized into groups of 10 and the compounds under examination and the vehicle were administered via the oral and parenteral routes testing each dose in two groups. Body temperature was determined at one, two and three hours after administration of the substances. […]
# [2] = in vivo; settings: mouse
# [3] = in vivo; settings: rat
# [4] = system: gastric lesions; format: in vivo, male Wistar rats; settings: 4 consecutive days; for gastric damage index: I=mean no. of lesions+mean of severity+% incidence/10; for mean severity: scale 0 (no lesion) to 5 (perforations)
# Method: Male Wistar rats weighing 180 g were randomized into groups of 10. Three doses of each compound were administered. One group received the vehicle alone (10 ml/kg b.w.). Each dose was given orally for four days consecutively and the rats were sacrificed on the fifth day for necropsy. The ulcerogenic effect was evaluated by the following scale:
# (1) each haemorrhagic point at least 1 mm in diameter was scored as 1 lesion,
# (2) haemorrhagic points less than 1 mm in diameter were scored in the following manner:
# (c) 20 to 29=three lesions
# By means of this scale it was possible to obtain the gastric damage index:
# I=mean no. of lesions+mean of severity+% incidence/10
# [5] = system: phenyl-p-quinone-induced writhing (abdominal contractions); assay: phenylquinone-induced writhing test, oral administration 1-24 h before phenyl-quinone (duration of analgesia); format: in vivo, male Wistar rats
# Method: Male Wistar rats weighing 110±5 g were caged for 10 days at 22±1° C. and given a balanced diet with free access to water. Twenty-four hours before the experiment the animals were randomized into groups of 10 and fasted for 14 hours but with free access to water. Each dose was tested in 3 groups of rats. […] alone (0.5% carboxymethyl-cellulose in physiological saline) in the control animals, each rat was given 2 ml of a 5% absolute ethanol aqueous solution containing 0.36% of phenyl-p-quinone (Sigma Chemical Company) in order to provoke writhings. Fifteen minutes after administration of phenyl-p-quinone the number of contractions were counted for 20 minutes. The inhibiting effect of the compounds under examination on the abdominal contractions induced by phenyl-p-quinone was calculated by the following formula: % protection= [formula]
compound,measurement,setting,value
"Cc1ccc(C(=O)c2ccc(CC(=O)N3CCOCC3)n2C)cc1 [Compound 3-a, 1-methyl-5-p-toluoylpyrrole-2-N-(4-morpholinyl) acetamide]",% Temperature decrease,"[1]; 50 mg/Kg i.p., 1 h",16.0%
same,% Temperature decrease,"[1]; 50 mg/Kg i.p., 2 h",26.0%
same,% Temperature decrease,"[1]; 50 mg/Kg i.p., 3 h",36.7%
same,% Temperature decrease,"[1]; 50 mg/Kg per os, 1 h",15.5%
same,% Temperature decrease,"[1]; 50 mg/Kg per os, 2 h",23.0%
same,% Temperature decrease,"[1]; 50 mg/Kg per os, 3 h",32.1%
same,% Temperature decrease,"[1]; 75 mg/Kg i.p., 1 h",19.0%
same,% Temperature decrease,"[1]; 75 mg/Kg i.p., 2 h",30.2%
same,% Temperature decrease,"[1]; 75 mg/Kg i.p., 3 h",39.4%
same,% Temperature decrease,"[1]; 75 mg/Kg per os, 1 h",16.2%
same,% Temperature decrease,"[1]; 75 mg/Kg per os, 2 h",29.1%
same,% Temperature decrease,"[1]; 75 mg/Kg per os, 3 h",39.4%
same,% Temperature decrease,"[1]; 100 mg/Kg i.p., 1 h",21.3%
same,% Temperature decrease,"[1]; 100 mg/Kg i.p., 2 h",36.1%
same,% Temperature decrease,"[1]; 100 mg/Kg i.p., 3 h",58.1%
same,% Temperature decrease,"[1]; 100 mg/Kg per os, 1 h",22.0%
same,% Temperature decrease,"[1]; 100 mg/Kg per os, 2 h",29.5%
same,% Temperature decrease,"[1]; 100 mg/Kg per os, 3 h",56.1%
same,LD50,[2]; ip,1500 mg/kg
same,LD50,[2]; po,> 2000 mg/kg
same,LD50,[3]; ip,1370 mg/kg
same,LD50,[3]; po,> 2400 mg/kg
same,% incidence/10 (head is drawing 38),[4]; 50 mg/Kg orally,7
same,mean no. of lesions,[4]; 50 mg/Kg orally,1
same,gastric damage index,[4]; 50 mg/Kg orally,9
same,mean severity,[4]; 50 mg/Kg orally,1
same,% incidence/10 (head is drawing 38),[4]; 100 mg/Kg orally,8
same,mean no. of lesions,[4]; 100 mg/Kg orally,1.5
same,gastric damage index,[4]; 100 mg/Kg orally,11.5
same,mean severity,[4]; 100 mg/Kg orally,2
same,% incidence/10 (head is drawing 38),[4]; 200 mg/Kg orally,9
same,mean no. of lesions,[4]; 200 mg/Kg orally,1.5
same,gastric damage index,[4]; 200 mg/Kg orally,12.5
same,mean severity,[4]; 200 mg/Kg orally,2
"Cc1ccc(C(=O)c2ccc(CC(=O)N3CCN(C)CC3)n2C)cc1 [Compound 3-b, 1-methyl-5-p-toluoylpyrrole-2-N-[(4-methyl)-1-piperazinyl] acetamide]",% Temperature decrease,"[1]; 50 mg/Kg i.p., 1 h",12.9%
same,% Temperature decrease,"[1]; 50 mg/Kg i.p., 2 h",23.0%
same,% Temperature decrease,"[1]; 50 mg/Kg i.p., 3 h",38.3%
same,% Temperature decrease,"[1]; 50 mg/Kg per os, 1 h",13.1%
same,% Temperature decrease,"[1]; 50 mg/Kg per os, 2 h",21.0%
same,% Temperature decrease,"[1]; 50 mg/Kg per os, 3 h",36.2%
same,% Temperature decrease,"[1]; 75 mg/Kg i.p., 1 h",23.4%
same,% Temperature decrease,"[1]; 75 mg/Kg i.p., 2 h",29.0%
same,% Temperature decrease,"[1]; 75 mg/Kg i.p., 3 h",48.5%
same,% Temperature decrease,"[1]; 75 mg/Kg per os, 1 h",19.0%
same,% Temperature decrease,"[1]; 75 mg/Kg per os, 2 h",29.1%
same,% Temperature decrease,"[1]; 75 mg/Kg per os, 3 h",40.6%
same,% Temperature decrease,"[1]; 100 mg/Kg i.p., 1 h",32.9%
same,% Temperature decrease,"[1]; 100 mg/Kg i.p., 2 h",39.0%
same,% Temperature decrease,"[1]; 100 mg/Kg i.p., 3 h",60.1%
same,% Temperature decrease,"[1]; 100 mg/Kg per os, 1 h",27.0%
same,% Temperature decrease,"[1]; 100 mg/Kg per os, 2 h",35.0%
same,% Temperature decrease,"[1]; 100 mg/Kg per os, 3 h",59.7%
same,LD50,[2]; ip,770 mg/kg
same,LD50,[2]; po,1200 mg/kg
same,LD50,[3]; ip,590 mg/kg
same,LD50,[3]; po,1000 mg/kg
same,% incidence/10 (head is drawing 38),[4]; 50 mg/Kg orally,7
same,mean no. of lesions,[4]; 50 mg/Kg orally,1
same,gastric damage index,[4]; 50 mg/Kg orally,9
same,mean severity,[4]; 50 mg/Kg orally,1
same,% incidence/10 (head is drawing 38),[4]; 100 mg/Kg orally,7
same,mean no. of lesions,[4]; 100 mg/Kg orally,1
same,% incidence/10 (head is drawing 38),[4]; 200 mg/Kg orally,8
same,mean no. of lesions,[4]; 200 mg/Kg orally,2
"Cc1ccc(C(=O)c2ccc(CC(=O)O)n2C)cc1 [Tolmetin Na.2H2 O, 1-methyl-5-p-toluoylpyrrole-2-acetic acid, reference compound]",% Protection,"[5]; 10 mg/Kg oral, 1 h before phenyl-quinone",51.8%
same,% Protection,"[5]; 10 mg/Kg oral, 2 h before phenyl-quinone",35.5%
same,% Protection,"[5]; 10 mg/Kg oral, 4 h before phenyl-quinone",32.0%
same,% Protection,"[5]; 10 mg/Kg oral, 6 h before phenyl-quinone",17.2%
same,% Protection,"[5]; 10 mg/Kg oral, 8 h before phenyl-quinone",20.2%
same,% Protection,"[5]; 10 mg/Kg oral, 16 h before phenyl-quinone",3.0%
same,% Protection,"[5]; 10 mg/Kg oral, 24 h before phenyl-quinone",5.0%
same,% Protection,"[5]; 20 mg/Kg oral, 1 h before phenyl-quinone",79.6%
same,% Protection,"[5]; 20 mg/Kg oral, 2 h before phenyl-quinone",78.0%
same,% Protection,"[5]; 20 mg/Kg oral, 4 h before phenyl-quinone",50.0%
same,% Protection,"[5]; 20 mg/Kg oral, 6 h before phenyl-quinone",45.3%
same,% Protection,"[5]; 20 mg/Kg oral, 8 h before phenyl-quinone",40.1%
same,% Protection,"[5]; 20 mg/Kg oral, 16 h before phenyl-quinone",8.7%
same,% Protection,"[5]; 20 mg/Kg oral, 24 h before phenyl-quinone",4.2%
same,% Protection,"[5]; 50 mg/Kg oral, 1 h before phenyl-quinone",81.0%
same,% Protection,"[5]; 50 mg/Kg oral, 2 h before phenyl-quinone",84.6%
same,% Protection,"[5]; 50 mg/Kg oral, 4 h before phenyl-quinone",62.5%
same,% Protection,"[5]; 50 mg/Kg oral, 6 h before phenyl-quinone",49.7%
same,% Protection,"[5]; 50 mg/Kg oral, 8 h before phenyl-quinone",45.0%
same,% Protection,"[5]; 50 mg/Kg oral, 16 h before phenyl-quinone",9.3%
same,% Protection,"[5]; 50 mg/Kg oral, 24 h before phenyl-quinone",3.8%
